Values of other authors in patent US20230372346A1, “TREATMENT REGIMENS FOR EXON-20 INSERTION MUTANT EGFR CANCERS” (CULLINAN PEARL CORP., priority 2020, published 2023).

Conditions: human, in vivo; cited from earlier work

In the case of `C=CC(=O)Nc1cc(Nc2ncc(C(=O)OC(C)C)c(-c3cn(C)c4ccccc34)n2)c(OC)cc1N(C)CCN(C)C` [TAK-788, mobocertinib], the “toxicity in the lowest-dose cohort where stable diseases or partial responses were observed” value is listed as “presented both grade 3 or above TRAEs and dose-limiting toxicities”.
